The record followed here is article PMC6271870, “Study on the Synthesis, Biological Activity and Spectroscopy of Naphthalimide-Diamine Conjugates” (Molecules, 2014).

One series has as its system cancer of colon HCT116. Briefly: MTT assay, HCT116 cells. Format: cell-based. The settings on record: Homo sapiens, HCT-116, aminoguanidine present, mean ± SD of three determinations, max 50 µM tested. On the procedure: (§1) The cytotoxicities of the novel conjugates were assessed in vitro by the MTT assay in the presence of aminoguanidine (an inhibitor of amine oxidase) against three cell lines, human leukemia K562, cancer of colon HCT116 and human normal hepatocyte QSG-7701 [34]. […] Thus, compound 7f was selected for further investigation. Cell lines, K562, 7721 and HCT116 were obtained from American Type Culture Collection (ATCC, Shanghai, China). Cells were cultured in RPMI1640, supplemented with 10% heat-inactivated fetal calf serum (FCS), antibiotics (penicillin, 100 units/mL; streptomycin sulfate, 100 μg/mL) at 37 °C, in an atmosphere of 95% air and 5% CO2 under humidified conditions. Aminoguanidine (1 mM) was added as an inhibitor of amine oxidase derived from FCS and had no effect on the various parameters of the cell measured in this study. In addition, exponentially growing HCT116 or 7721 cells were seeded into 96-well plates at 5000 cells/well and allowed to attach overnight, and then 100 μL of MTT (1 mg/mL) was added. After incubation for 4 h at 37 °C, the MTT solution was removed and the remaining formazan crystals were dissolved with 150 μL DMSO in each well. The absorbance of each well was then read at 570 nm.
(In general: Tetrazolium dyes change colour on reduction, which living cells bring about.)

Series [1] concerns human normal hepatocyte QSG-7701. Briefly: MTT assay, QSG-7701 cells. Format: cell-based. The settings on record: QSG7701, aminoguanidine present, mean ± SD of three determinations, max 50 µM tested. On the procedure: as §1
A further series relates to human leukemia K562. Briefly: MTT assay, K562 cells. Format: cell-based. The settings on record: 48 h, aminoguanidine present, mean ± SD of three determinations, max 50 µM tested. As to the method: as §1, with “Chemosensitivity” for “In addition, exponentially growing HCT116 or 7721 cells were seeded into 96-well plates at 5000 cells/well and allowed to attach overnight, and then 100 μL of MTT (1 mg/mL)”, “assessed using the 3-(4,5-dimethylthiazol-2-yl)-2,5-diphenyltetrazolium bromide (MTT) assay. […]” for “added.”, “purple” for “MTT solution was removed and the remaining”, “crystals (i.e., a reduced form of MTT) generated from viable cells” for “crystals”, “by adding 100” for “with 150”, “10% sodium dodecyl sulphate (SDS)” for “DMSO”

On to `CN(C)CCN1C(=O)c2cccc3cc(N)cc(c23)C1=O` [Amonafide, amonafide, reference compound], for which the IC50 (as a rule, the midpoint of a concentration-inhibition curve) in the series with cancer of colon HCT116 was 6.86 ± 1.89 µM; in series [1], 20.3 ± 2.43 µM; with human leukemia K562, 10.1 ± 2.59 µM.

As to `Cl.Cl.NCCNCCCN1C(=O)c2cccc3cccc(c23)C1=O` [Compound 7a, 2-[3-(2-Aminoethylamino)propyl]1H-benz-[de]isoquinoline-1,3(2H)-dione dihydrochloride], the melting point (usually the temperature, or range, at which the solid turns liquid) was 233.4 to 235.1 °C. The compound further displayed an IC50 in the series with cancer of colon HCT116 of 19.3 ± 4.39 µM. Besides, in series [1], the IC50 is > 50 µM. Further, the IC50 in the series on human leukemia K562 came to 48.8 ± 3.93 µM.

On to `Cl.Cl.NCCNCCCCN1C(=O)c2cccc3cccc(c23)C1=O` [Compound 7b, 2-[4-(2-Aminoethylamino)butyl]1H-benz-[de]isoquinoline-1,3(2H)-dione dihydrochloride], for which the melting point lay within 243.1 to 244.1 °C. In the series on cancer of colon HCT116, this compound had an IC50 of 13.9 ± 2.68 µM. Moreover, the midpoint of inhibition in series [1], the IC50, lay at 33.9 ± 4.32 µM. In the series with human leukemia K562, this compound showed an IC50 of 25.6 ± 3.74 µM.

Turning to `Cl.Cl.NCCNCCCCCN1C(=O)c2cccc3cccc(c23)C1=O` [Compound 7c, 2-[5-(2-Aminoethylamino)pentyl]1H-benz-[de]isoquinoline-1,3(2H)-dione dihydrochloride], the melting point was in the range of 233.8 to 235.1 °C. The same compound returned an IC50 in the series with cancer of colon HCT116 of 9.89 ± 1.11 µM. In addition, the half-inhibitory concentration (IC50) in series [1] is > 50 µM. This compound returned an IC50 in the series with human leukemia K562 of 38.8 ± 1.76 µM.

The compound `Cl.Cl.NCCCNCCCN1C(=O)c2cccc3cccc(c23)C1=O` [Compound 7d, 2-[3-(3-Aminopropylamino)propyl]1H-benz-[de]isoquinoline-1,3(2H)-dione dihydrochloride] yielded a melting point of 233.1 to 234.2 °C. Moreover, half-maximal inhibition in the series on cancer of colon HCT116 (IC50) was put at 8.95 ± 3.87 µM. Besides, the IC50 in series [1] was determined as 8.04 ± 3.35 µM. This compound also returned an IC50 in the series on human leukemia K562 of 19.7 ± 7.23 µM.

`Cl.Cl.NCCCNCCCCCN1C(=O)c2cccc3cccc(c23)C1=O` [Compound 7e, 2-[5-(3-Aminopropylamino)pentyl]1H-benz-[de]isoquinoline-1,3(2H)-dione dihydrochloride] displayed a melting point of 238.6 to 239.8 °C. In addition, the IC50 in the series on cancer of colon HCT116 was found to be 9.52 ± 3.31 µM. In series [1], this compound returned an IC50 of 22.2 ± 0.67 µM. The compound also showed an IC50 in the series on human leukemia K562 of 22.4 ± 1.21 µM.

Take `Cl.Cl.NCCCCNCCCCN1C(=O)c2cccc3cccc(c23)C1=O` [Compound 7g, 2-[4-(4-Aminobutylamino)butyl]1H-benz-[de]isoquinoline-1,3(2H)-dione dihydrochloride]: the melting point was 226.7 to 228.3 °C. Further, the IC50 in the series with cancer of colon HCT116 stood at 13.9 ± 2.54 µM. This compound yielded an IC50 in series [1] of 12 ± 4.07 µM. For the same compound, the half-maximal inhibitory concentration (IC50) with human leukemia K562 worked out at 14 ± 3.32 µM.

As for `Cl.Cl.NCCCCNCCCCCN1C(=O)c2cccc3cccc(c23)C1=O` [Compound 7h, 2-[5-(4-Aminobutylamino)pentyl]1H-benz-[de]isoquinoline-1,3(2H)-dione dihydrochloride], the melting point lay in the range of 236.6 to 237.9 °C. The same compound had an IC50 with cancer of colon HCT116 of 16.2 ± 4.28 µM. Inhibition in series [1] was half-maximal at 18.8 ± 4.94 µM (IC50). Further, the IC50 in the series on human leukemia K562 was 15.9 ± 1.53 µM.

`Cl.Cl.NCCCCCCNCCCN1C(=O)c2cccc3cccc(c23)C1=O` [Compound 7i, 2-[3-(6-Aminohexylamino)propyl]1H-benz-[de]isoquinoline-1,3(2H)-dione dihydrochloride] registered a melting point of 230.6 to 231.8 °C. This compound returned an IC50 with cancer of colon HCT116 of 11 ± 1.71 µM. Further, in series [1], the IC50 was > 50 µM. The same compound returned an IC50 in the series on human leukemia K562 of 41.4 ± 1.76 µM.

Consider `Cl.Cl.NCCCCCCNCCCCN1C(=O)c2cccc3cccc(c23)C1=O` [Compound 7j, 2-[4-(6-Aminohexylamino)butyl]1H-benz-[de]isoquinoline-1,3(2H)-dione dihydrochloride], for which the melting point is 235.9 to 237.2 °C. Moreover, in the series with cancer of colon HCT116, it took 16.4 ± 1.75 µM to reach half-maximal inhibition (IC50). In series [1], the 50% inhibitory concentration (IC50) was 13.1 ± 3.94 µM. Moreover, it took 12.6 ± 0.81 µM to reach half-maximal inhibition in the series on human leukemia K562 (IC50).

`Cl.Cl.NCCCCCCNCCCCCN1C(=O)c2cccc3cccc(c23)C1=O` [Compound 7k, 2-[5-(6-Aminohexylamino)pentyl]1H-benz-[de]isoquinoline-1,3(2H)-dione dihydrochloride] came in with a melting point of 229.1 to 230.3 °C. This compound came in with an IC50 with cancer of colon HCT116 of 9.95 ± 1.81 µM. This compound also registered an IC50 in series [1] of 14.7 ± 3.91 µM. In addition, in the series with human leukemia K562, the IC50 is 15.9 ± 1.83 µM.
